From patent US7906518B2, “Therapeutic compounds” (CBT Development Limited, priority 2006, dated 2011)

How the values were obtained:
adenosine A2A receptor = adenosine A2A receptor (Homo sapiens, UniProt P29274); test: EC50 at the adenosine A2A receptor; type: biochemical
[1] = test system: streptozocin induced static allodynia; test: streptozocin-induced diabetic neuropathy, static allodynia (von Frey hairs); type: in vivo; settings: rats
Experimental: Diabetes was induced by a single i.p. injection of 50 mg/kg streptozocin (Sigma, 50 mg/ml/kg in citrate buffered saline 33 mM pH 4.5). Control animals received single i.p. injection of citrate buffered saline.

[2] = monkey, multiple oral dosing, 14C-labelled; cited from earlier work

Chain of adenosine A2A receptor (P29274 whole entry): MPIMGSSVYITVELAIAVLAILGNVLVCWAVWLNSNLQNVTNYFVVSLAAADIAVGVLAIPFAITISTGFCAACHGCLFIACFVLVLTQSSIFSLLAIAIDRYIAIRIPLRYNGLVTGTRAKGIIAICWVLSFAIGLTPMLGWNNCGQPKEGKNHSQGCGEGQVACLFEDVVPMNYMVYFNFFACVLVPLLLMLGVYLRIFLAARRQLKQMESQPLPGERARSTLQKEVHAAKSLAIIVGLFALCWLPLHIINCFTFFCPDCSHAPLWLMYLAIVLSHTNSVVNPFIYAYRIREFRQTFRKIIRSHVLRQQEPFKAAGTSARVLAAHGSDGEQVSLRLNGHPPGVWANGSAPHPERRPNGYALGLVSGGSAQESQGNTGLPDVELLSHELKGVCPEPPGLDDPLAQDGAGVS

Row | EC50 (adenosine A2A receptor) [nM] | Compound | reversal of streptozocin induced static allodynia (PWT), all doses ([1]; 0.6-[…] po) | reversal of streptozocin induced static allodynia (PWT), top dose ([1]; top dose […] po) | drug level in red blood cells compared to Ribavarin [2] | drug level in the liver compared to Ribavarin [2]
1 | ~1000 | COc1nc(N)c2ncn([C@@H]3O[C@H](CO)[C@@H](O)[C@H]3O)c2n1 [Spongosine, 2-methoxyadenosine] | All doses were effective at reversing allodynia | fully reversed the allodynia | – | –
2 | – | N=C(N)c1ncn([C@@H]2O[C@H](CO)[C@@H](O)[C@H]2O)n1 [Viramidine] | – | – | only half in red blood cells | three times the drug level in the liver
